{"source": "patent US20180256462A1", "about": "“ALCOHOL-BASED SKIN SANITIZER HAVING MICROBICIDAL PROPERTIES” (DEB IP LIMITED, priority 2015, published 2018)", "origin": "cited, not measured here", "key": {"[1]": {"test_system": "Lactobacillus fermentum", "details": "live cells of Lactobacillus fermentum, flow cytometry"}, "[2]": {"test_system": "Microsporum gypseum"}, "[3]": {"test_system": "Staphylococcus aureus", "details": "low concentrations (0.5 to 2 mM), disk diffusion"}, "[4]": {"test_system": "Microsporum gypseum", "details": "10% in Vaseline petroleum jelly, topical daily for 3 weeks; for skin lesion scoring: first week of application; for histopathologic examination of skin tissues (hyperkeratosis, inflammatory cell infiltration): versus positive control"}, "[5]": {"test_system": "Escherichia coli"}}, "note": "Read-outs that look alike come from different tables or passages of the source.", "data": [{"smiles": "C=CC(C)(O)CCC=C(C)CCC=C(C)C", "note": "(mixture of isomers) [nerolidol, 3,7,11-trimethyl-1,6,10-dodecatrien-3-ol]", "values": [{"measurement": "intracellular accumulation of ethidium bromide", "setting": "[1]", "value": "promoted the intracellular accumulation of the membrane-impermeant nucleic acid stain ethidium bromide"}, {"measurement": "MIC", "setting": "[2]", "value": "0.5-2%"}, {"measurement": "susceptibility of Staphylococcus aureus to ciprofloxacin, clindamycin, erythromycin, gentamicin, tetracycline, and vancomycin", "setting": "[3]", "value": "enhanced the susceptibility of Staphylococcus aureus"}, {"measurement": "hair culture test", "setting": "[4]", "value": "improved the skin lesions infected by M. gypseum"}, {"measurement": "skin lesion scoring", "setting": "[4]", "value": "clinically effective at improving the lesion during the first week of application"}, {"measurement": "histopathologic examination of skin tissues (hyperkeratosis, inflammatory cell infiltration)", "setting": "[4]", "value": "lower degree of hyperkeratosis and inflammatory cell infiltration than the positive control"}, {"measurement": "sensitization of Escherichia coli to polymyxin B", "setting": "[5]", "value": "sensitized Escherichia coli to polymyxin B"}]}, {"smiles": "CC(C)=CCC/C(C)=C/CC1CCCC1=O", "note": "(stereo not drawn) [apritone]", "values": [{"measurement": "intracellular accumulation of ethidium bromide", "setting": "[1]", "value": "promoted the intracellular accumulation of the membrane-impermeant nucleic acid stain ethidium bromide"}, {"measurement": "susceptibility of Staphylococcus aureus to ciprofloxacin, clindamycin, erythromycin, gentamicin, tetracycline, and vancomycin", "setting": "[3]", "value": "enhanced the susceptibility of Staphylococcus aureus"}]}, {"smiles": "CC(C)=CCC[C@](C)(O)C1CC=C(C)CC1", "note": "(stereo partly drawn) [bisabolol]", "values": [{"measurement": "intracellular accumulation of ethidium bromide", "setting": "[1]", "value": "promoted the intracellular accumulation of the membrane-impermeant nucleic acid stain ethidium bromide"}, {"measurement": "susceptibility of Staphylococcus aureus to ciprofloxacin, clindamycin, erythromycin, gentamicin, tetracycline, and vancomycin", "setting": "[3]", "value": "enhanced the susceptibility of Staphylococcus aureus"}]}, {"smiles": "Clc1ccc(COC(Cn2ccnc2)c2ccc(Cl)cc2Cl)cc1", "note": "(stereo not drawn) [econazole]", "values": [{"measurement": "MIC", "setting": "[2]; positive control", "value": "4 to 16", "unit": "µg/mL"}]}, {"smiles": "C=CCc1ccc(O)c(OC)c1", "note": "[eugenol]", "values": [{"measurement": "MIC", "setting": "[2]", "value": "0.01-0.03%"}, {"measurement": "hair culture test", "setting": "[4]", "value": "did not"}, {"measurement": "skin lesion scoring", "setting": "[4]", "value": "clinically effective at improving the lesion during the first week of application"}, {"measurement": "histopathologic examination of skin tissues (hyperkeratosis, inflammatory cell infiltration)", "setting": "[4]", "value": "lower degree of hyperkeratosis and inflammatory cell infiltration than the positive control"}]}, {"smiles": "CC(C)=CCCC(C)=CCCC(C)=CCO", "note": "[farnesol]", "values": [{"measurement": "intracellular accumulation of ethidium bromide", "setting": "[1]", "value": "promoted the intracellular accumulation of the membrane-impermeant nucleic acid stain ethidium bromide"}, {"measurement": "sensitization of Escherichia coli to polymyxin B", "setting": "[5]", "value": "sensitized Escherichia coli to polymyxin B"}]}]}
